From patent US20230085307A1, “PYRIDAZINONE COMPOUND AND HERBICIDE” (NISSAN CHEMICAL CORPORATION, priority 2019, published 2023)

How the values were obtained:
green foxtail [1] = assay: Test Example 5: herbicidal effect by foliage application, plastic box (Table 20, symbol G); type: in vivo, green foxtail (Setaria viridis); details: evaluated three weeks after application
In short: (§1)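 Foliar spray test: emulsion formulation diluted in water to a set application rate, sprayed onto 14-day-old plants raised in diluvial soil at 25° C to 30° C under glass. Both herbicidal effect and crop effect rated visually three weeks later.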

persian speedwell [2] = assay: Test Example 4: herbicidal effect by soil treatment (Table 19, symbol R); type: in vivo, Persian speedwell (Veronica persica); details: amount of applied herbicide 320 g/ha
In short: (§2)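 Step 1: sow seeds in sterilized diluvial soil, cover ~1.5 cm. Step 2: spray diluted emulsion onto soil surface at predetermined rate. Step 3: greenhouse, 25–30° C, three weeks. Step 4: grade effect on each plant by earlier criteria.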

lambsquarters [3] = assay: Test Example 4: herbicidal effect by soil treatment (Table 19, symbol O); type: in vivo, lambsquarters (Chenopodium album); details: amount of applied herbicide 320 g/ha
In short: as §2

wild oat [4] = assay: Test Example 5: herbicidal effect by foliage application, plastic box (Table 20, symbol I); type: in vivo, wild oat (Avena fatua); details: evaluated three weeks after application
In short: as §1

barnyard grass [5] = assay: Test Example 4: herbicidal effect by soil treatment (Table 19, symbol H); type: in vivo, barnyard grass (Echinochloa crus-galli); details: amount of applied herbicide 320 g/ha
In short: as §2

chickweed [6] = assay: Test Example 4: herbicidal effect by soil treatment (Table 19, symbol P); type: in vivo, common chickweed (Stellaria media); details: amount of applied herbicide 320 g/ha
In short: as §2

Japanese bulrush = assay: Test Example 1: herbicidal activity, application before weed generation under submerged conditions (Table 16, symbol B); type: in vivo, Japanese bulrush (Schoenoplectus juncoides)
In short: (§3)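 Alluvial soil was flooded to 4 cm depth, weed seeds were sown mixed and 2.5-leaf rice seedlings were transplanted. On sowing day, the compound's emulsion, diluted in water to a set dose, was applied to the water surface. Plants grew at 25–30 °C and were scored 0–5 after three weeks.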

late watergrass = assay: Test Example 1: herbicidal activity, application before weed generation under submerged conditions (Table 16, symbol A); type: in vivo, late watergrass (Echinochloa oryzicola)
In short: as §3

barnyard grass [7] = assay: Test Example 3: herbicidal effect by foliage application, Wagner pot (Table 18, symbol H); type: in vivo, barnyard grass (Echinochloa crus-galli)
In short: (§4)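 Plants were sown in alluvial soil held under 0.1–0.5 cm standing water and grown 14 days in a greenhouse at 25–30 °C. An emulsifiable formulation, water-diluted to the set dose, was then sprayed onto the foliage, and effects were scored three weeks later using previously defined criteria.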

green foxtail [8] = assay: Test Example 4: herbicidal effect by soil treatment (Table 19, symbol G); type: in vivo, green foxtail (Setaria viridis); details: amount of applied herbicide 320 g/ha
In short: as §2

persian speedwell [9] = assay: Test Example 5: herbicidal effect by foliage application, plastic box (Table 20, symbol R); type: in vivo, Persian speedwell (Veronica persica); details: evaluated three weeks after application
In short: as §1

chickweed [10] = assay: Test Example 5: herbicidal effect by foliage application, plastic box (Table 20, symbol P); type: in vivo, common chickweed (Stellaria media); details: evaluated three weeks after application
In short: as §1

wild oat [11] = assay: Test Example 4: herbicidal effect by soil treatment (Table 19, symbol I); type: in vivo, wild oat (Avena fatua); details: amount of applied herbicide 320 g/ha
In short: as §2

redroot pigweed [12] = assay: Test Example 4: herbicidal effect by soil treatment (Table 19, symbol N); type: in vivo, redroot pigweed (Amaranthus retroflexus); details: amount of applied herbicide 320 g/ha
In short: as §2

barnyard grass [13] = assay: Test Example 5: herbicidal effect by foliage application, plastic box (Table 20, symbol H); type: in vivo, barnyard grass (Echinochloa crus-galli); details: evaluated three weeks after application
In short: as §1

blackgrass [14] = assay: Test Example 5: herbicidal effect by foliage application, plastic box (Table 20, symbol J); type: in vivo, blackgrass (Alopecurus myosuroides); details: evaluated three weeks after application
In short: as §1

southern crabgrass [15] = assay: Test Example 4: herbicidal effect by soil treatment (Table 19, symbol F); type: in vivo, southern crabgrass (Digitaria ciliaris); details: amount of applied herbicide 320 g/ha
In short: as §2

velvetleaf [16] = assay: Test Example 4: herbicidal effect by soil treatment (Table 19, symbol M); type: in vivo, velvetleaf (Abutilon theophrasti); details: amount of applied herbicide 320 g/ha
In short: as §2

Italian ryegrass [17] = assay: Test Example 5: herbicidal effect by foliage application, plastic box (Table 20, symbol K); type: in vivo, Italian ryegrass (Lolium multiflorum); details: evaluated three weeks after application
In short: as §1

velvetleaf [18] = assay: Test Example 5: herbicidal effect by foliage application, plastic box (Table 20, symbol M); type: in vivo, velvetleaf (Abutilon theophrasti); details: evaluated three weeks after application
In short: as §1

redroot pigweed [19] = assay: Test Example 5: herbicidal effect by foliage application, plastic box (Table 20, symbol N); type: in vivo, redroot pigweed (Amaranthus retroflexus); details: evaluated three weeks after application
In short: as §1

Italian ryegrass [20] = assay: Test Example 4: herbicidal effect by soil treatment (Table 19, symbol K); type: in vivo, Italian ryegrass (Lolium multiflorum); details: amount of applied herbicide 320 g/ha
In short: as §2

southern crabgrass [21] = assay: Test Example 5: herbicidal effect by foliage application, plastic box (Table 20, symbol F); type: in vivo, southern crabgrass (Digitaria ciliaris); details: evaluated three weeks after application
In short: as §1

oval-leafed pondweed = assay: Test Example 1: herbicidal activity, application before weed generation under submerged conditions (Table 16, symbol C); type: in vivo, oval-leafed pondweed (Monochoria vaginalis)
In short: as §3

lambsquarters [22] = assay: Test Example 5: herbicidal effect by foliage application, plastic box (Table 20, symbol O); type: in vivo, lambsquarters (Chenopodium album); details: evaluated three weeks after application
In short: as §1

Chinese sprangletop = assay: Test Example 3: herbicidal effect by foliage application, Wagner pot (Table 18, symbol D); type: in vivo, chinese sprangletop (Leptochloa chinensis)
In short: as §4

windgrass [23] = assay: Test Example 5: herbicidal effect by foliage application, plastic box (Table 20, symbol L); type: in vivo, windgrass (Apera spica-venti); details: evaluated three weeks after application
In short: as §1

rice flat sedge = assay: Test Example 3: herbicidal effect by foliage application, Wagner pot (Table 18, symbol E); type: in vivo, rice flat sedge (Cyperus iria)
In short: as §4

windgrass [24] = assay: Test Example 4: herbicidal effect by soil treatment (Table 19, symbol L); type: in vivo, windgrass (Apera spica-venti); details: amount of applied herbicide 320 g/ha
In short: as §2

blackgrass [25] = assay: Test Example 4: herbicidal effect by soil treatment (Table 19, symbol J); type: in vivo, blackgrass (Alopecurus myosuroides); details: amount of applied herbicide 320 g/ha
In short: as §2

[26] = amount of applied herbicide 320 g/ha
[27] = amount of applied herbicide 320 g/ha, foliage application after 14-day growth

CCCC(=O)Oc1c(C)nn(C)c(=O)c1-c1c(-c2cccc(OC(F)(F)F)c2)sc2ccc(F)cc12 [2-237]
herbicidal effect on G: green foxtail (criteria 0-5) (green foxtail [1]; foliage application, 320 g/ha): 0 (Herbicidal rate of 5% or less (almost no effect)) | herbicidal effect on R: persian speedwell (persian speedwell [2]): 0 (Herbicidal rate of 5% or less (almost no effect)) | herbicidal effect on O: lambsquarters (lambsquarters [3]): 0 (Herbicidal rate of 5% or less (almost no effect)) | herbicidal effect on I: wild oat (criteria 0-5) (wild oat [4]; foliage application, 320 g/ha): 0 (Herbicidal rate of 5% or less (almost no effect)) | herbicidal effect on H: barnyard grass (barnyard grass [5]): 0 (Herbicidal rate of 5% or less (almost no effect)) | herbicidal effect on P: chickweed (chickweed [6]): 5 (Herbicidal rate of 90% or more (almost completely withered)) | Herbicidal effect on B: Japanese bulrush (grade 0-5) (Japanese bulrush; 320 g/ha applied herbicide): 0 (Herbicidal rate of 5% or less (almost no effect)) | Herbicidal effect on A: late watergrass (grade 0-5) (late watergrass; 320 g/ha applied herbicide): 3 (Herbicidal rate of 40% or more and less than 70%) | herbicidal effect on H: barnyard grass (barnyard grass [7]; [26]): 3 (Herbicidal rate of 40% or more and less than 70%) | herbicidal effect on G: green foxtail (green foxtail [8]): 0 (Herbicidal rate of 5% or less (almost no effect)) | herbicidal effect on R: persian speedwell (criteria 0-5) (persian speedwell [9]; foliage application, 320 g/ha): 3 (Herbicidal rate of 40% or more and less than 70%) | herbicidal effect on P: chickweed (criteria 0-5) (chickweed [10]; foliage application, 320 g/ha): 5 (Herbicidal rate of 90% or more (almost completely withered)) | herbicidal effect on I: wild oat (wild oat [11]): 0 (Herbicidal rate of 5% or less (almost no effect)) | herbicidal effect on N: redroot pigweed (redroot pigweed [12]): 0 (Herbicidal rate of 5% or less (almost no effect)) | herbicidal effect on H: barnyard grass (criteria 0-5) (barnyard grass [13]; foliage application, 320 g/ha): 0 (Herbicidal rate of 5% or less (almost no effect)) | herbicidal effect on J: blackgrass (criteria 0-5) (blackgrass [14]; foliage application, 320 g/ha): 0 (Herbicidal rate of 5% or less (almost no effect)) | herbicidal effect on F: southern crabgrass (southern crabgrass [15]): 0 (Herbicidal rate of 5% or less (almost no effect)) | herbicidal effect on M: velvetleaf (velvetleaf [16]): 0 (Herbicidal rate of 5% or less (almost no effect)) | herbicidal effect on K: Italian ryegrass (criteria 0-5) (Italian ryegrass [17]; foliage application, 320 g/ha): 0 (Herbicidal rate of 5% or less (almost no effect)) | herbicidal effect on M: velvetleaf (criteria 0-5) (velvetleaf [18]; foliage application, 320 g/ha): 3 (Herbicidal rate of 40% or more and less than 70%) | herbicidal effect on N: redroot pigweed (criteria 0-5) (redroot pigweed [19]; foliage application, 320 g/ha): 5 (Herbicidal rate of 90% or more (almost completely withered)) | herbicidal effect on K: Italian ryegrass (Italian ryegrass [20]): 0 (Herbicidal rate of 5% or less (almost no effect)) | herbicidal effect on F: southern crabgrass (criteria 0-5) (southern crabgrass [21]; foliage application, 320 g/ha): 0 (Herbicidal rate of 5% or less (almost no effect)) | Herbicidal effect on C: oval-leafed pondweed (grade 0-5) (oval-leafed pondweed; 320 g/ha applied herbicide): 0 (Herbicidal rate of 5% or less (almost no effect)) | herbicidal effect on O: lambsquarters (criteria 0-5) (lambsquarters [22]; foliage application, 320 g/ha): 2 (Herbicidal rate of 20% or more and less than 40%) | herbicidal effect on D: Chinese sprangletop (Chinese sprangletop; [26]): 4 (Herbicidal rate of 70% or more and less than 90%) | herbicidal effect on L: windgrass (criteria 0-5) (windgrass [23]; foliage application, 320 g/ha): 0 (Herbicidal rate of 5% or less (almost no effect)) | herbicidal effect on E: rice flat sedge (rice flat sedge; [26]): 5 (Herbicidal rate of 90% or more (almost completely withered)) | herbicidal effect on L: windgrass (windgrass [24]): 0 (Herbicidal rate of 5% or less (almost no effect))

CCOc1cc(F)ccc1-c1sc2cc(F)c(F)cc2c1-c1c(O)c(C)nn(C)c1=O [5-031]
Herbicidal effect by foliage application, G: green foxtail (green foxtail [1]; [27]): 5 (Herbicidal rate of 90% or more (almost completely withered)) | O: lambsquarters, herbicidal effect grade (lambsquarters [3]): 5 (Herbicidal rate of 90% or more (almost completely withered)) | Herbicidal effect by foliage application, I: wild oat (wild oat [4]; [27]): 4 (Herbicidal rate of 70% or more and less than 90%) | H: barnyard grass, herbicidal effect grade (barnyard grass [5]): 3 (Herbicidal rate of 40% or more and less than 70%) | P: chickweed, herbicidal effect grade (chickweed [6]): 3 (Herbicidal rate of 40% or more and less than 70%) | Herbicidal effect, B: Japanese bulrush (Japanese bulrush; [26]): 0 (Herbicidal rate of 5% or less (almost no effect)) | Herbicidal effect, A: late watergrass (late watergrass; [26]): 2 (Herbicidal rate of 20% or more and less than 40%) | herbicidal effect on barnyard grass (H) (barnyard grass [7]; 320 g/ha): 5 (Herbicidal rate of 90% or more (almost completely withered)) | G: green foxtail, herbicidal effect grade (green foxtail [8]): 5 (Herbicidal rate of 90% or more (almost completely withered)) | Herbicidal effect by foliage application, R: persian speedwell (persian speedwell [9]; [27]): 5 (Herbicidal rate of 90% or more (almost completely withered)) | Herbicidal effect by foliage application, P: chickweed (chickweed [10]; [27]): 5 (Herbicidal rate of 90% or more (almost completely withered)) | I: wild oat, herbicidal effect grade (wild oat [11]): 1 (Herbicidal rate of 5% or more and less than 20%) | N: redroot pigweed, herbicidal effect grade (redroot pigweed [12]): 5 (Herbicidal rate of 90% or more (almost completely withered)) | Herbicidal effect by foliage application, H: barnyard grass (barnyard grass [13]; [27]): 5 (Herbicidal rate of 90% or more (almost completely withered)) | Herbicidal effect by foliage application, J: blackgrass (blackgrass [14]; [27]): 5 (Herbicidal rate of 90% or more (almost completely withered)) | F: southern crabgrass, herbicidal effect grade (southern crabgrass [15]): 4 (Herbicidal rate of 70% or more and less than 90%) | M: velvetleaf, herbicidal effect grade (velvetleaf [16]): 4 (Herbicidal rate of 70% or more and less than 90%) | Herbicidal effect by foliage application, K: Italian ryegrass (Italian ryegrass [17]; [27]): 2 (Herbicidal rate of 20% or more and less than 40%) | Herbicidal effect by foliage application, M: velvetleaf (velvetleaf [18]; [27]): 5 (Herbicidal rate of 90% or more (almost completely withered)) | Herbicidal effect by foliage application, N: redroot pigweed (redroot pigweed [19]; [27]): 5 (Herbicidal rate of 90% or more (almost completely withered)) | K: Italian ryegrass, herbicidal effect grade (Italian ryegrass [20]): 0 (Herbicidal rate of 5% or less (almost no effect)) | Herbicidal effect by foliage application, F: southern crabgrass (southern crabgrass [21]; [27]): 5 (Herbicidal rate of 90% or more (almost completely withered)) | Herbicidal effect, C: oval-leafed pondweed (oval-leafed pondweed; [26]): 0 (Herbicidal rate of 5% or less (almost no effect)) | Herbicidal effect by foliage application, O: lambsquarters (lambsquarters [22]; [27]): 5 (Herbicidal rate of 90% or more (almost completely withered)) | herbicidal effect on Chinese sprangletop (D) (Chinese sprangletop; 320 g/ha): 4 (Herbicidal rate of 70% or more and less than 90%) | Herbicidal effect by foliage application, L: windgrass (windgrass [23]; [27]): 5 (Herbicidal rate of 90% or more (almost completely withered)) | herbicidal effect on rice flat sedge (E) (rice flat sedge; 320 g/ha): 5 (Herbicidal rate of 90% or more (almost completely withered)) | L: windgrass, herbicidal effect grade (windgrass [24]): 5 (Herbicidal rate of 90% or more (almost completely withered)) | J: blackgrass, herbicidal effect grade (blackgrass [25]): 3 (Herbicidal rate of 40% or more and less than 70%)
